Laboratory results as given in US20260242343A1, “COMPOUND SERVING AS DDR1 KINASE INHIBITOR, AND MEDICINE” (NIPPON SHINYAKU CO., LTD., priority 2022, published 2026).
Counter-ions that a name gives are not always drawn.

What was measured:
[1] = molecular target: T1, DDR1 kinase in DDR1-expressing U2OS cells (Homo sapiens, UniProt Q08345); test: DDR1 kinase inhibitory effect in DDR1-expressing U2OS cells (PathHunter, type I collagen stimulation); type: cell-based; settings: type I collagen 50 μg/mL, 10% FBS, read-out: DDR-1 IC50
T1 construct: host or cells: U2OS
Method: Test compounds in DMSO were prepared at 10 mM and diluted with DMSO to final concentrations of 1000, 100, 10, 1, and 0.1 μM. These solutions were diluted further with E-MEM medium (Fujifilm Wako Pure Chemical Industries, 051-07615) containing 10% fetal bovine serum (FBS, Gibco, 10270106) to 60,000, 6,000, 600, 60, 6, and 0.6 nM to obtain test sample solutions.
DDR1-expressing U2OS cells (DiscoverX, 93-0894C3) suspended at 2.5×10^5 cells/mL in 10% FBS+E-MEM medium were seeded in 384-well plates (DiscoverX, 92-0013) in 20 μL portions and cultured overnight at 37° C. and 5% CO2.
The next day, the test sample solutions as prepared were added at 5 μL/well to final concentrations of 10,000, 1,000, 100, 10, 1, and 0.1 nM. After incubation at 37° C. and 5% CO2 for 1 hour, type I collagen (Nitta Gelatin, 631-00771) was added at 5 μL/well to a final concentration of 50 μg/mL, and cultured overnight at 37° C. and 5% CO2.
The next day, the plate was left at room temperature for 1 hour, after which 5 μL/well of detection solution was added according to the instruction manual for the PathHunter (registered trademark) Detection Kit (DiscoverX, 93-0001). […] The test was performed in duplicate.

[2] = tested on: anti-glomerular basement membrane antibody-induced nephritis model; test: In vivo efficacy study using anti-glomerular basement membrane antibody-induced nephritis model; set-up: species or system WKY/NCrlCrlj rats; settings: rat, 24-hour urine
Method: The test compound was weighed and suspended in 0.5% methylcellulose (Shin-Etsu Chemical Co., Ltd.)+99.5% Otsuka distilled water (Otsuka Pharmaceutical Factory) to prepare a test sample solution for administration. 300 μL of phosphate buffered saline (Wako, 045-29795) containing 33.3 μg/mL anti-glomerular basement membrane antibody (Chondrex, 70221) was intravenously administered into the tail vein of WKY/NCrlCrlj rats (7-week-old males). 7 days after, the test sample was administered twice a day for 7 days, and the rats were moved to a metabolism/urine collection cage from the 6th to 7th days of the starting of the administration, and the 24-hour urine was collected. The weight of the collected urine was measured. 150 μL of urine was transferred to a sample cup (650-M, BMBio ST). The albumin concentration in urine was measured using a JCA-BM6050 automatic analyzer (JEOL). The amount of albumin in urine was determined with correction for the measured urine weight. The amounts of albumin in urine in the group without administration of anti-glomerular basement membrane antibody and the group with administration of vehicle were set at 0% and 100%, respectively, and the ratio of the amount of albumin in urine in the group administered with the test compound was calculated.

[3] = molecular target: T2, DDR1 protein (Homo sapiens, UniProt Q08345); test: Evaluation of DDR1 kinase inhibitory activity (LANCE Ultra TR-FRET); type: biochemical; settings: DDR1 protein 0.5 nM, ATP 100 μM, 2 hours at room temperature; read-out: DDR-1 IC50
T2 construct: purchased Carna Biosciences 08-113
Method: The test was performed in duplicate.

[4] = dose 50 mg/kg twice a day for 7 days
[5] = dose 10 mg/kg twice a day for 7 days

T1 sequence (Q08345 19-913): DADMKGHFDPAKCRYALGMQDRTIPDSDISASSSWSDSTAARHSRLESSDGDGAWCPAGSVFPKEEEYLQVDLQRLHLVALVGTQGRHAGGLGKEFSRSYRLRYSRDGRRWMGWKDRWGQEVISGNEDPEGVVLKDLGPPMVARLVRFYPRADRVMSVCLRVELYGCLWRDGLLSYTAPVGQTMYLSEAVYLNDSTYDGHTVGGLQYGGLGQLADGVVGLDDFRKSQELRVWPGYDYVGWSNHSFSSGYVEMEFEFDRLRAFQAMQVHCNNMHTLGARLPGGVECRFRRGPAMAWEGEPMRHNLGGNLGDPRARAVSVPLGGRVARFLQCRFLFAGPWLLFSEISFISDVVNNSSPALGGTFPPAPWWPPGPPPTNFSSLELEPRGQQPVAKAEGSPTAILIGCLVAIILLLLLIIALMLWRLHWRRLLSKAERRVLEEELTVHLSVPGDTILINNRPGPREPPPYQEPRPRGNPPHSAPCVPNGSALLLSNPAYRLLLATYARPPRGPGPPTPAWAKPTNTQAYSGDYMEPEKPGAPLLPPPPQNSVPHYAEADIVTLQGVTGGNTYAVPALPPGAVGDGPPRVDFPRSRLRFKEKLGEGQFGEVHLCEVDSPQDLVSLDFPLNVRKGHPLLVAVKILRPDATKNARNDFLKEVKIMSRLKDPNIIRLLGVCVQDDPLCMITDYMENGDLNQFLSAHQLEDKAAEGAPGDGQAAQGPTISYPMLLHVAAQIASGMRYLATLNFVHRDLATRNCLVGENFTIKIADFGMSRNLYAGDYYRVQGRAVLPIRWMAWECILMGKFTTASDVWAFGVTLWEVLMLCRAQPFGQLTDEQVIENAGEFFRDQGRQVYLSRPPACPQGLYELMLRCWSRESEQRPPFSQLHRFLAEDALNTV
T2 sequence (Q08345 19-876 isoform Q08345-2 limits assumed): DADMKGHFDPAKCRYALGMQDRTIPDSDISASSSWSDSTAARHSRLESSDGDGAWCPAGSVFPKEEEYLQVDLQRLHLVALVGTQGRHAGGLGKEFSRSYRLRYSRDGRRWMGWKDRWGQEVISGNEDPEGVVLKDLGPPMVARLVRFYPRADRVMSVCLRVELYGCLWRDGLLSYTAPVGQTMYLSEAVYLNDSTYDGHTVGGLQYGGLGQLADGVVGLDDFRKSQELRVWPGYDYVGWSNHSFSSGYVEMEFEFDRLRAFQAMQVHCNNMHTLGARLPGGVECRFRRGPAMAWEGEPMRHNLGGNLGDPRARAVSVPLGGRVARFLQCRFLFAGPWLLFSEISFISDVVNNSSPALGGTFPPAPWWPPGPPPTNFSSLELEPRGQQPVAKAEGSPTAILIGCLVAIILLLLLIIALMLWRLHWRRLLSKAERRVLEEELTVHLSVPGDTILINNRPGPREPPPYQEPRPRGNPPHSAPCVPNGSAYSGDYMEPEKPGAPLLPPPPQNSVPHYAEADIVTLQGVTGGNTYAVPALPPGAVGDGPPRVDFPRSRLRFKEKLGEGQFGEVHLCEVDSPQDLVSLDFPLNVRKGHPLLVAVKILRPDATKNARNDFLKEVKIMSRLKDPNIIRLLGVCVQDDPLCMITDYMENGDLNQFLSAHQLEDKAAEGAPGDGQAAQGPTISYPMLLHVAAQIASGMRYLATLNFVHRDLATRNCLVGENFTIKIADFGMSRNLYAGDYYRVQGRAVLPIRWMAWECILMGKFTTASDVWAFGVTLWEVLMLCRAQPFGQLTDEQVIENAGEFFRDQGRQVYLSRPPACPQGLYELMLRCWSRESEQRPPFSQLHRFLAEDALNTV

Structure (SMILES)	IC50 [1] [nM]	IC50 [3] [nM]	further results
NC(=O)c1ncc2cc(-c3cc(C(=O)N[C@H]4CCCC[C@@H]4O)ccc3C(F)(F)F)ccn12 [Example 14, 7-(5-{[(1S,2S)-2-Hydroxycyclohexyl]carbamoyl}-2-(trifluoromethyl)phenyl)imidazo[1,5-a]pyridine-3-carboxamide]	83	2.5	Urinary albumin (% of vehicle-administered group) [2, 4]: 76 % of vehicle-administered grou
Nc1cnc(C#Cc2cc(C(=O)N[C@H](CO)CCOC(F)(F)F)ccc2OC(F)F)cn1 [Example 7, 3-[2-(5-Aminopyrazin-2-yl)ethynyl]-4-(difluoromethoxy)-N-[(2S)-1-hydroxy-4-(trifluoromethoxy)butan-2-yl]benzamide]	50	4.4	Urinary albumin (% of vehicle-administered group) ([2]; dose 30 mg/kg twice a day for 7 days): 69 % of vehicle-administered grou
O=C(N[C@H]1C[C@H](OC(F)(F)F)C[C@@H]1O)c1ccc(OC(F)F)c(C#Cc2cncnc2)c1 [Example 1, 4-(Difluoromethoxy)-N-[(1S,2S,4S)-2-hydroxy-4-(trifluoromethoxy)cyclopentyl]-3-[(pyrimidin-5-yl)ethynyl]benzamide]	29	7	Urinary albumin (% of vehicle-administered group) [2, 4]: 70 % of vehicle-administered grou
Cn1cc(C#Cc2cc(C(=O)N[C@H]3C[C@H](OC(F)(F)F)C[C@@H]3O)ccc2OC(F)F)cn1 [Example 6, 4-(Difluoromethoxy)-N-[(1S,2S,4S)-2-hydroxy-4-(trifluoromethoxy)cyclopentyl]-3-[2-(1-methyl-1H-pyrazol-4-yl)ethynyl]benzamide]	58	0.39	Urinary albumin (% of vehicle-administered group) ([2]; dose 5 mg/kg twice a day for 7 days): 72 % of vehicle-administered grou
Nc1ncc(/C=C(\F)c2cc(C(=O)N[C@H](CO)CCOC(F)(F)F)ccc2OC(F)F)cn1 [Example 12, 3-[(1Z)-2-(2-Aminopyrimidin-5-yl)-1-fluoroethenyl]-4-(difluoromethoxy)-N-[(2S)-1-hydroxy-4-(trifluoromethoxy)butan-2-yl]benzamide]	14	1.1	
CCc1ccc(C(=O)N[C@H]2C[C@H](OC(F)(F)F)C[C@@H]2O)cc1NC(=O)c1cnc(NCC2CC2)s1 [Example 45, 2-[(Cyclopropylmethyl)amino]-N-(2-ethyl-5-{[(1S,2S,4S)-2-hydroxy-4-(trifluoromethoxy)cyclopentyl]carbamoyl}phenyl)-1,3-thiazole-5-carboxamide]	6.8	1.3	
O=C(N[C@H]1CC2(CC2)C[C@@H]1O)c1ccc(OC(F)F)c(C#Cc2cncc(F)c2)c1 [Example 19, 4-(Difluoromethoxy)-3-[2-(5-fluoropyridin-3-yl)ethynyl]-N-[(5S,6S)-6-hydroxyspiro[2.4]heptan-5-yl]benzamide]	27	3.2	
Nc1ncc(C#Cc2cc(C(=O)N[C@H]3C[C@H](OC(F)(F)F)C[C@@H]3O)ccc2OC(F)F)cn1 [Example 3, 3-[2-(2-Aminopyrimidin-5-yl)ethynyl]-4-(difluoromethoxy)-N-[(1S,2S,4S)-2-hydroxy-4-(trifluoromethoxy)cyclopentyl]benzamide]	3.6	0.86	Urinary albumin (% of vehicle-administered group) [2, 4]: 78 % of vehicle-administered grou
O=C(N[C@H]1C[C@H](OC(F)(F)F)C[C@@H]1O)c1ccc(OC(F)F)c(C#Cc2cncc(F)c2)c1 [Example 2, 4-(Difluoromethoxy)-3-[2-(5-fluoropyridin-3-yl)ethynyl]-N-[(1S,2S,4S)-2-hydroxy-4-(trifluoromethoxy)cyclopentyl]benzamide]	38	3.6	
COc1nc(N)ncc1C#Cc1cc(C(=O)N[C@H]2C[C@H](OC(F)(F)F)C[C@@H]2O)ccc1OC(F)F [Example 5, 3-[2-(2-Amino-4-methoxypyrimidin-5-yl)ethynyl]-4-(difluoromethoxy)-N-[(1S,2S,4S)-2-hydroxy-4-(trifluoromethoxy)cyclopentyl]benzamide]	1.8	0.25	Urinary albumin (% of vehicle-administered group) [2, 5]: 57 % of vehicle-administered grou
CCc1ccc(C(=O)N[C@H](CO)CCOC(F)(F)F)cc1NC(=O)c1cncc(-c2cccc(F)c2)c1 [Example 32, N-(2-Ethyl-5-{[(2S)-1-hydroxy-4-(trifluoromethoxy)butan-2-yl]carbamoyl}phenyl)-5-(3-fluorophenyl)pyridine-3-carboxamide]	54	26	
Nc1ncc(C#Cc2cc(C(=O)N[C@H](CO)c3ccccc3)ccc2OC(F)F)cn1 [Example 36, 3-[2-(2-Aminopyrimidin-5-yl)ethynyl]-4-(difluoromethoxy)-N-[(1S)-2-hydroxy-1-phenylethyl]benzamide hydrochloride]	230	8.6	
Nc1cnc(/C(F)=C/c2cc(C(=O)N[C@H]3C[C@H](OC(F)(F)F)C[C@@H]3O)ccc2OC(F)F)cn1 [Example 10, 3-[(1Z)-2-(5-Aminopyrazin-2-yl)-2-fluoroethenyl]-4-(difluoromethoxy)-N-[(1S,2S,4S)-2-hydroxy-4-(trifluoromethoxy)cyclopentyl]benzamide]	72	1.2	Urinary albumin (% of vehicle-administered group) [2, 5]: 69 % of vehicle-administered grou
O=C(N[C@H]1CC2(CC2)C[C@@H]1O)c1ccc(OC(F)F)c(C#Cc2cncnc2)c1 [Example 18, 4-(Difluoromethoxy)-N-[(5S,6S)-6-hydroxyspiro[2.4]heptan-5-yl]-3-[2-(pyrimidin-5-yl)ethynyl]benzamide]	150	22	
Nc1ncc(C#Cc2cc(C(=O)N[C@H]3CC4(CC4)C[C@@H]3O)ccc2OC(F)F)cn1 [Example 21, 3-[2-(2-Aminopyrimidin-5-yl)ethynyl]-4-(difluoromethoxy)-N-[(5S,6S)-6-hydroxyspiro[2.4]heptan-5-yl]benzamide]	11	0.27	
Nc1cnc(C#Cc2cc(C(=O)N[C@H]3C[C@H](OC(F)(F)F)C[C@@H]3O)ccc2OC(F)F)cn1 [Example 4, 3-[2-(5-Aminopyrazin-2-yl)ethynyl]-4-(difluoromethoxy)-N-[(1S,2S,4S)-2-hydroxy-4-(trifluoromethoxy)cyclopentyl]benzamide]	18	0.56	Urinary albumin (% of vehicle-administered group) ([2]; dose 25 mg/kg twice a day for 7 days): 69 % of vehicle-administered grou
Nc1ncc(/C=C(\F)c2cc(C(=O)N[C@H]3CC4(CC4)C[C@@H]3O)ccc2OC(F)F)cn1 [Example 40, 3-[(1Z)-2-(2-Aminopyrimidin-5-yl)-1-fluoroethenyl]-4-(difluoromethoxy)-N-[(5S,6S)-6-hydroxyspiro[2.4]heptan-5-yl]benzamide]	5.6	0.48	
NC(=O)c1ncc2cc(-c3cc(C(=O)N[C@H]4CC5(CC5)C[C@@H]4O)ccc3C(F)(F)F)ccn12 [Example 28, 7-(5-{[(5S,6S)-6-Hydroxyspiro[2.4]heptan-5-yl]carbamoyl}-2-(trifluoromethyl)phenyl)imidazo[1,5-a]pyridine-3-carboxamide]	7.8	0.86	
NC(=O)c1ncc2cc(-c3cc(C(=O)N[C@H]4CC(F)(F)CC[C@@H]4O)cnc3C(F)(F)F)ccn12 [Example 41, 5-{3-Carbamoylimidazo[1,5-a]pyridin-7-yl}-N-[(1S,2S)-5,5-difluoro-2-hydroxycyclohexyl]-6-(trifluoromethyl)pyridine-3-carboxamide]	350	60	
Nc1ncc(/C(F)=C/c2cc(C(=O)N[C@H]3CCCC[C@@H]3O)ccc2OC(F)F)cn1 [Example 38, 3-[(1Z)-2-(2-Aminopyrimidin-5-yl)-2-fluoroethenyl]-4-(difluoromethoxy)-N-[(1S,2S)-2-hydroxycyclohexyl]benzamide]	99	12	
